The target in experiment [1] is T1, BRD4 bromo domain 1 [BRD4(1)] (Homo sapiens, UniProt O60885).
T1 construct: N-terminally His6-tagged BRD4(1) (amino acids 67-152); made in house; host or cells: E. coli
Description: BRD4(1)/acetylated peptide H4 binding assay (TR-FRET). The following applies: inhibition of interaction between His6-tagged BRD4(1) (amino acids 67-152) and acetylated histone H4 peptide. The method, boiled down:
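TR-FRET measured displacement of a biotinylated tetra-acetylated H4 peptide from His6-BRD4(1) (aa 67-152, E. coli-expressed, typically 10 nM) in HEPES pH 7.5 buffer. Compounds were tested at 11 concentrations (0.1 nM–20 μM), with 10 min preincubation, then 1 h at 22 °C and ≥3 h at 4 °C. The 665/620 nm ratio gave IC50 by 4-parameter fit.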

In experiment [2] the target is T2, BRD4 bromo domain 2 [BRD4(2)] (Homo sapiens, UniProt O60885).
T2 construct: N-terminally His6-tagged BRD4(2) (amino acids 357-445); made in house; host or cells: E. coli
The experiment is described as follows: BRD4(2)/acetylated peptide H4 binding assay (TR-FRET). The following applies: inhibition of interaction between His6-tagged BRD4(2) (amino acids 357-445) and acetylated histone H4 peptide. The method, boiled down: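 TR-FRET displacement of biotinylated tetra-acetylated H4 peptide from His6-BRD4(2) (aa 357-445, E. coli-expressed), 100 nM final, in HEPES pH 7.5 buffer; 11 compound concentrations 0.1 nM-20 μM, 10 min preincubation, then 1 h 22 °C plus ≥3 h 4 °C. 665/620 ratio read; IC50 by 4-parameter fit.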

The next experiment has as its system MOLM-13 cell line. The experiment is described as follows: MOLM-13 cell proliferation assay (alamarBlue). It is filed as cell-based. The following applies: Homo sapiens, inhibition of proliferation of MOLM-13 cells (acute myeloid leukaemia), 96 hours incubation. On the procedure:
In accordance with the invention, the substances were tested for their ability to inhibit the proliferation of the MOLM-13 cell linie (Deutsche Sammlung für Mikroorganismen und Zellkulturen [German Collection of Microorganisms and Cell Cultures], ACC 554; acute myeloid leukaemia). Cell viability was determined by means of the alamarBlue® reagent (Invitrogen) in a Victor X3 Multilabel Reader (Perkin Elmer). The excitation wavelength was 530 nm and the emission wavelength […].
The MOLM-13 cells were sown at a density of 4000 cells/well in 100 μl of growth medium on 96-well microtitre plates. After overnight incubation at 37° C., the fluorescence values were determined (CI values). The plates were then treated with various substance dilutions and incubated at 37° C. for 96 hours. Subsequently, the fluorescence values were determined (CO values). For the data analysis, the CI values were subtracted from the CO values and the results were compared between cells which had been treated with various dilutions of the substance or only with buffer solution. The IC50 values (substance concentration needed for 50% inhibition of cell proliferation) were calculated therefrom.
For orientation: Alamar Blue is a resazurin reagent that responds to reducing activity.

Broadly, the IC50 is the concentration that inhibits the measured activity by half. A lower IC50 goes with greater potency. On to `C[C@@H]1C(=O)N(C)c2ccc(Nc3ccc(C(=O)NC4CN(C)C4)cc3)nc2N1C1CCCCC1` [Example 30, 4-{[(3R)-4-Cyclohexyl-1,3-dimethyl-2-oxo-1,2,3,4-tetrahydropyrido[2,3-b]pyrazin-6-yl]amino}-N-(1-methylazetidin-3-yl)benzamide], for which the concentration for half-maximal inhibition (IC50) in experiment [1] was 119 nM; in experiment [2] it was 140 nM; in the experiment on MOLM-13 cell line, 293 nM.

Regarding `CC(C)N1c2nc(Nc3ccc(S(=O)(=O)N4CCN(C)CC4)cc3)ccc2N(C)C(=O)[C@H]1C` [Example 99, (3R)-1,3-Dimethyl-6-({4-[(4-methylpiperazin-1-yl)sulphonyl]phenyl}amino)-4-(propan-2-yl)-3,4-dihydropyrido[2,3-b]pyrazin-2(1H)-one], the half-inhibitory concentration (IC50) in experiment [1] was 145 nM; in experiment [2] it was 104 nM; with MOLM-13 cell line, 316 nM.

As for `COc1cc(C(=O)NCCN2CCN(C)CC2)ccc1Nc1ccc2c(n1)N(Cc1ccccc1)[C@H](C)C(=O)N2C` [Example 82, 4-{[(3R)-4-Benzyl-1,3-dimethyl-2-oxo-1,2,3,4-tetrahydropyrido[2,3-b]pyrazin-6-yl]amino}-3-methoxy-N-[2-(4-methylpiperazin-1-yl)ethyl]benzamide], the results for the half-inhibitory concentration (IC50) (in experiment [1]; in experiment [2]; in the experiment with MOLM-13 cell line) were 40 nM, 48 nM and 131 nM, respectively.

Turning to `CC1C(=O)N(C)c2ccc(Nc3ccc(S(=O)(=O)NC4CCN(C)CC4)cc3)nc2N1c1ccccc1` (stereo not drawn) [Example 107, 4-[(1,3-Dimethyl-2-oxo-4-phenyl-1,2,3,4-tetrahydropyrido[2,3-b]pyrazin-6-yl)amino]-N-(1-methylpiperidin-4-yl)benzenesulphonamide], the 50% inhibitory concentration (IC50) in experiment [1] worked out at 201 nM; in experiment [2], 241 nM; in the experiment on MOLM-13 cell line it was 255 nM.

`Cc1cc(C(=O)N[C@H]2CC[C@H](N3CCN(CC4CC4)CC3)CC2)ccc1Nc1ccc2c(n1)N(C1CCOCC1)[C@H](C)C(=O)N2C` [Example 37, N-{trans-4-[4-(Cyclopropylmethyl)piperazin-1-yl]cyclohexyl}-4-{[(3R)-1,3-dimethyl-2-oxo-4-(tetrahydro-2H-pyran-4-yl)-1,2,3,4-tetrahydropyrido[2,3-b]pyrazin-6-yl]amino}-3-methylbenzamide]: the values for the IC50 (in experiment [1]; in experiment [2]; with MOLM-13 cell line) were 347 nM, 306 nM and 859 nM, respectively.

As to `COc1cc(C(=O)NC2CCN(C)CC2)ccc1Nc1ccc2c(n1)N(C(C)C)[C@H](C)C(=O)N2C` [Example 2, 4-{[(3R)-1,3-Dimethyl-2-oxo-4-(propan-2-yl)-1,2,3,4-tetrahydropyrido[2,3-b]pyrazin-6-yl]amino}-3-methoxy-N-(1-methylpiperidin-4-yl)benzamide], the 50% inhibitory concentration (IC50) came to 501 nM in experiment [1], 622 nM in experiment [2] and 2360 nM in the experiment on MOLM-13 cell line.

On to `C[C@@H]1C(=O)N(C)c2ccc(Nc3ccc(S(=O)(=O)NC4CCN(C)CC4)cc3)nc2N1C1CCOCC1` [Example 22, 4-{[(3R)-1,3-dimethyl-2-oxo-4-(tetrahydro-2H-pyran-4-yl)-1,2,3,4-tetrahydropyrido[2,3-b]pyrazin-6-yl]amino}-N-(1-methylpiperidin-4-yl)benzenesulphonamide], for which the half-maximal inhibitory concentration (IC50) is 52 nM in experiment [1], 53 nM in experiment [2] and 203 nM in the experiment with MOLM-13 cell line.

For `C[C@@H]1C(=O)N(C)c2ccc(Nc3ccc(C(=O)N4CC5(CCS5(=O)=O)C4)cc3)nc2N1Cc1ccccc1` [Example 75, (3R)-4-Benzyl-6-({4-[(1,1-dioxido-1-thia-6-azaspiro[3.3]hept-6-yl)carbonyl]phenyl}amino)-1,3-dimethyl-3,4-dihydropyrido[2,3-b]pyrazin-2(1H)-one], the concentration for half-maximal inhibition (IC50) in experiment [1] came to 149 nM; in experiment [2], 82 nM; with MOLM-13 cell line, 350 nM.

For the molecule `C[C@@H]1C(=O)N(C)c2ccc(Nc3ccc(C(=O)N[C@H]4CC[C@H](N5CCN(CC6CC6)CC5)CC4)cc3)nc2N1C1CCOCC1` [Example 57, N-{trans-4-[4-(Cyclopropylmethyl)piper-azin-1-yl]cyclohexyl}-4-{[(3R)-1,3-dimethyl-2-oxo-4-(tetrahydro-2H-pyran-4-yl)-1,2,3,4-tetrahydropyrido[2,3-b]pyrazin-6-yl]amino}benzamide], the results for the IC50 (in experiment [1]; in experiment [2]; with MOLM-13 cell line) were 139 nM, 156 nM and 366 nM, respectively.

As to `CC(C)N1c2nc(Nc3ccc(S(=O)(=O)N4CCOCC4)cc3)ccc2N(C)C(=O)[C@H]1C` [Example 101, (3R)-1,3-Dimethyl-6-{[4-(morpholin-4-ylsulphonyl)phenyl]amino}-4-(propan-2-yl)-3,4-dihydropyrido[2,3-b]pyrazin-2(1H)-one], the half-maximal inhibitory concentration (IC50) in experiment [1] came out at 134 nM; in experiment [2] it was 105 nM; in the experiment on MOLM-13 cell line, 226 nM.

For `CC(C)N1CCN(S(=O)(=O)c2ccc(Nc3ccc4c(n3)N(C3CCCC3)[C@H](C)C(=O)N4C)cc2)CC1` [Example 102, (3R)-4-Cyclopentyl-1,3-dimethyl-6-[(4-{[4-(propan-2-yl)piperazin-1-yl]sulphonyl}phenyl)amino]-3,4-dihydropyrido[2,3-b]pyrazin-2(1H)-one], the IC50 turned out to be 100 nM in experiment [1], 90 nM in experiment [2] and 214 nM in the experiment on MOLM-13 cell line.

As to `C[C@@H]1C(=O)N(C)c2ccc(Nc3ccc(S(=O)(=O)N4CCOCC4)cc3)nc2N1C1CCOCC1` [Example 18, (3R)-1,3-dimethyl-6-{[4-(morpholin-4-ylsulphonyl)phenyl]amino}-4-(tetrahydro-2H-pyran-4-yl)-3,4-dihydropyrido[2,3-b]pyrazin-2(1H)-one], the IC50 in experiment [1] turned out to be 56 nM; in experiment [2] it was 40 nM; in the experiment on MOLM-13 cell line it was 305 nM.

As for `COc1cc(C(=O)N2CC3(CCS3(=O)=O)C2)ccc1Nc1ccc2c(n1)N(C1CCCC1)[C@H](C)C(=O)N2C` [Example 10, (3R)-4-Cyclopentyl-6-({4-[(1,1-dioxido-1-thia-6-azaspiro[3.3]hept-6-yl)carbonyl]-2-methoxyphenyl}amino)-1,3-dimethyl-3,4-dihydropyrido[2,3-b]pyrazin-2(1H)-one], the IC50 in experiment [1] came out at 165 nM; in experiment [2], 230 nM; with MOLM-13 cell line it was 623 nM.

Consider `C[C@@H]1C(=O)N(C)c2ccc(Nc3ccc(S(=O)(=O)N4CCN(C)CC4)cc3F)nc2N1C1CCOCC1` [Example 21, (3R)-6-({2-fluoro-4-[(4-methylpiperazin-1-yl)sulphonyl]phenyl}amino)-1,3-dimethyl-4-(tetrahydro-2H-pyran-4-yl)-3,4-dihydropyrido[2,3-b]pyrazin-2(1H)-one], for which the values for the IC50 (in experiment [1]; in experiment [2]; with MOLM-13 cell line) were 106 nM, 87 nM and 397 nM, respectively.

Turning to `CC(C)N1c2nc(Nc3ccc(C(=O)N4CC5(CCS5(=O)=O)C4)cc3)ccc2N(C)C(=O)[C@H]1C` [Example 9, (3R)-6-({4-[(1,1-Dioxido-1-thia-6-azaspiro[3.3]hept-6-yl)carbonyl]phenyl}amino)-4-isopropyl-1,3-dimethyl-3,4-dihydropyrido[2,3-b]pyrazin-2(1H)-one], the half-inhibitory concentration (IC50) stood at 150 nM in experiment [1], 130 nM in experiment [2] and 698 nM with MOLM-13 cell line.

In the case of `C[C@@H]1C(=O)N(C)c2ccc(Nc3ccc(C(=O)NC4CCC(O)CC4)cc3)nc2N1Cc1ccccc1` (stereo partly drawn) [Example 42, 4-{[(3R)-4-Benzyl-1,3-dimethyl-2-oxo-1,2,3,4-tetrahydropyrido[2,3-b]pyrazin-6-yl]amino}-N-(4-hydroxycyclohexyl)benzamide], the IC50 came out at 156 nM in experiment [1], 99 nM in experiment [2] and 326 nM in the experiment on MOLM-13 cell line.

Source of the values: patent US20160193206A1, “BET-PROTEIN-INHIBITING DIHYDROPYRIDOPYRAZINONES” (BAYER PHARMA AKTIENGESELLSCHAFT, priority 2012, published 2016).
